These compounds were tested on α-SMA (assay: α-SMA expression inhibitory ability in MRC5 cell line (Western blotting)). Details: TGF-β1 (10 ng/mL), 72 hours, relative to TGF-β1 only.
Type: cell-based
Experimental: Subsequently, the inhibitory effect on pulmonary fibrosis of the compounds according to the present invention was overall evaluated. An MRC5 cell line was treated with each compound at 10 μM, and 2 hours later, treated with TGF-β1 (10 ng/mL). After 72 hours, the cells were lysed using RIPA Buffer, and then an α-SMA protein level was measured through Western blotting. The α-SMA expression level when treating the cells with each compound and TGF-β1 compared to the α-SMA expression level when treating the cells only with TGF-β1 without the compound was calculated as the α-SMA expression inhibitory ability of the corresponding compound. The α-SMA expression inhibitory ability of each compound is summarized in Table 2 below (A: inhibitory ability≥70%, B: 50%: inhibitory ability<70%, C: inhibitory ability<50%).

| Compound | inhibition at 10 µM |
| --- | --- |
| CN1CCN(CC(=O)N2CCN(Cc3ccccc3Cl)c3ccccc32)CC1 [Compound 95, 1-(4-(2-chlorobenzyl)-3,4-dihydroquinoxaline-1(2H)-yl)-2-(4-methylpiperazin-1-yl)ethan-1-one] | 50 to 70% |
| CC(C(=O)N1CCN(c2ccc(F)cc2)c2cc(F)ccc21)N1CCN(C)CC1 (stereo not shown) [Compound 52, 1-(6-fluoro-4-(4-fluorophenyl)-3,4-dihydroquinoxaline-1(2H)-yl)-2-(4-methylpiperazin-1-yl)propan-1-one] | < 50% |
| O=C(CCN1CCCC1)N1CCN(CC2CC2)c2ccccc21 [Compound 161, 1-(4-(cyclopropylmethyl)-3,4-dihydroquinoxaline-1(2H)-yl)-3-(pyrrolidin-1-yl)propan-1-one] | < 50% |
| O=C(CCN1CCCC1)N1CCN(c2ccccn2)c2ccccc21 [Compound 146] | < 50% |
| CC(C(=O)N1CCN(c2ccccc2)c2ccccc21)N1CCN2CCCC2C1 (stereo not shown) [Compound 64, 2-(hexahydropyrrolo[1,2-a]pyrazin-2(1H)-yl)-1-(4-phenyl-3,4-dihydroquinoxaline-1(2H)-yl)propan-1-one] | < 50% |
| O=C(CCN1CCCCC1)N1CCN(CC2CC2)c2ccccc21 [Compound 162, 1-(4-(cyclopropylmethyl)-3,4-dihydroquinoxaline-1(2H)-yl)-3-(piperidin-1-yl)propan-1-one] | < 50% |
| CN1CCN(CC(=O)N2CCN(C(=O)c3ccccc3)c3ccccc32)CC1 [Compound 204, 1-(4-benzoyl-3,4-dihydroquinoxaline-1(2H)-yl)-2-(4-methylpiperazin-1-yl)ethan-1-one] | < 50% |
| CC(C)CN1CCN(C(=O)CN2CCCC2)c2ccccc21 [Compound 174, 1-(4-isobutyl-3,4-dihydroquinoxaline-1(2H)-yl)-2-(pyrrolidin-1-yl)ethan-1-one] | 50 to 70% |
| O=C(CCN1CCCC(O)C1)N1CCN(c2ccccc2)c2ccccc21 (stereo not shown) [Compound 58, 3-(3-hydroxypiperidin-1-yl)-1-(4-phenyl-3,4-dihydroquinoxaline-1(2H)-yl)propan-1-one] | 50 to 70% |
| CC(C(=O)N1CCN(c2ccc(F)cc2)c2ccccc21)N1CCN(C)CC1 (stereo not shown) [Compound 34, 1-(4-(4-fluorophenyl)-3,4-dihydroquinoxaline-1(2H)-yl)-2-(4-methylpiperazin-1-yl)propan-1-one] | < 50% |
| CN1CCN(CCC(=O)N2CCN(c3ccccc3)c3cc(F)ccc32)CC1 [Compound 4, 1-(6-fluoro-4-phenyl-3,4-dihydroquinoxaline-1(2H)-yl)-3-(4-methylpiperazin-1-yl)propan-1-one] | 50 to 70% |
| CC(C)CN1CCN(C(=O)CN2CCN(C)CC2)c2ccccc21 [Compound 176, 1-(4-isobutyl-3,4-dihydroquinoxaline-1(2H)-yl)-2-(4-methylpiperazin-1-yl)ethan-1-one] | < 50% |
| CN1CCN(CCC(=O)N2CCN(c3ccc(F)cc3)c3ccccc32)CC1 [Compound 17, 1-(4-(4-fluorophenyl)-3,4-dihydroquinoxaline-1(2H)-yl)-3-(4-methylpiperazin-1-yl)propan-1-one di-p-toluene sulfonate] | 50 to 70% |
| CC(C)CN1CCN(C(=O)CCN2CCCCC2)c2ccccc21 [Compound 169, 1-(4-isobutyl-3,4-dihydroquinoxaline-1(2H)-yl)-3-(piperidin-1-yl)propan-1-one] | 50 to 70% |
| CC(C(=O)N1CCN(c2ccc(F)cc2)c2cc(F)ccc21)N1CCC[C@H]1C (stereo partly drawn) [Compound 54, 1-(6-fluoro-4-(4-fluorophenyl)-3,4-dihydroquinoxaline-1(2H)-yl)-2-((R)-2-methylpyrrolidin-1-yl)propan-1-one] | < 50% |
| O=C(CCN1CCCCC1)N1CCN(Cc2ccccn2)c2ccccc21 [Compound 115, 3-(piperidin-1-yl)-1-(4-(pyridin-2-ylmethyl)-3,4-dihydroquinoxaline-1(2H)-yl)propan-1-one] | < 50% |
| CC(C(=O)N1CCN(c2ccccc2Cl)c2ccccc21)N1CCN(C)CC1 (stereo not shown) [Compound 130, 1-(4-(2-chlorophenyl)-3,4-dihydroquinoxaline-1(2H)-yl)-2-(4-methylpiperazin-1-yl)propan-1-one] | 50 to 70% |
| CN1CCN(CCC(=O)N2CCN(C3CCCCC3)c3ccccc32)CC1 [Compound 188, 1-(4-cyclohexyl-3,4-dihydroquinoxaline-1(2H)-yl)-3-(4-methylpiperazin-1-yl)propan-1-one] | 50 to 70% |
| C[C@H]1CCCCN1C(=O)CN1CCN(c2ccccc2)c2ccccc21 [Compound 71, (S)-1-(2-methylpiperidin-1-yl)-2-(4-phenyl-3,4-dihydroquinoxaline-1(2H)-yl)ethan-1-one] | < 50% |
| CN1CCN(CCC(=O)N2CCN(C(=O)c3ccccc3)c3ccccc32)CC1 [Compound 198, 1-(4-benzoyl-3,4-dihydroquinoxaline-1(2H)-yl)-3-(4-methylpiperazin-1-yl)propan-1-one] | < 50% |

| Compound | inhibition at 10 µM |
| --- | --- |
| CC(C(=O)N1CCN(c2ccc(F)cc2)c2ccccc21)N1CCCC1 (stereo not shown) [Compound 33, 1-(4-(4-fluorophenyl)-3,4-dihydroquinoxaline-1(2H)-yl)-2-(pyrrolidin-1-yl)propan-1-one] | 50 to 70% |
| CC(C(=O)N1CCN(c2ccccc2Cl)c2ccccc21)N1CCCCC1 (stereo not shown) [Compound 129, 1-(4-(2-chlorophenyl)-3,4-dihydroquinoxaline-1(2H)-yl)-2-(piperidin-1-yl)propan-1-one] | ≥ 70% |
| O=C(CCN1CCCCC1)N1CCN(c2ccccc2)c2cc(F)ccc21 [Compound 3, 1-(6-fluoro-4-phenyl-3,4-dihydroquinoxaline-1(2H)-yl)-3-(piperidin-1-yl)propan-1-one] | 50 to 70% |
| O=C(CN1CCCC1)N1CCN(Cc2ccccn2)c2ccccc21 [Compound 117, 1-(4-(pyridin-2-ylmethyl)-3,4-dihydroquinoxaline-1(2H)-yl)-2-(pyrrolidin-1-yl)ethan-1-one] | < 50% |
| CC(C)CN1CCN(C(=O)C(C)N2CCN(C)CC2)c2ccccc21 (stereo not shown) [Compound 173, 1-(4-isobutyl-3,4-dihydroquinoxaline-1(2H)-yl)-2-(4-methylpiperazin-1-yl)propan-1-one] | 50 to 70% |
| O=C(CCN1CCCC1)N1CCN(c2ccccc2)c2cc(F)ccc21 [Compound 1, 1-(6-fluoro-4-phenyl-3,4-dihydroquinoxaline-1(2H)-yl)-3-(pyrrolidin-1-yl)propan-1-one] | 50 to 70% |
| CN1CCN(CC(=O)N2CCN(c3cccc(Cl)c3)c3ccccc32)CC1 [Compound 139, 1-(4-(3-chlorophenyl)-3,4-dihydroquinoxaline-1(2H)-yl)-2-(4-methylpiperazin-1-yl)ethan-1-one] | ≥ 70% |
| O=C(CCN1CCCC1)N1CCN(Cc2ccccn2)c2ccccc21 [Compound 114, 1-(4-(pyridin-2-ylmethyl)-3,4-dihydroquinoxaline-1(2H)-yl)-3-(pyrrolidin-1-yl)propan-1-one di-oxalate] | 50 to 70% |
| CC(C(=O)N1CCN(CC2CC2)c2ccccc21)N1CCCCC1 (stereo not shown) [Compound 165, 1-(4-(cyclopropylmethyl)-3,4-dihydroquinoxaline-1(2H)-yl)-2-(piperidin-1-yl)propan-1-one] | < 50% |
| O=C(CCN1CCCC1)N1CCN(c2ccccc2Cl)c2ccccc21 [Compound 125, 1-(4-(2-chlorophenyl)-3,4-dihydroquinoxaline-1(2H)-yl)-3-(pyrrolidin-1-yl)propan-1-one] | 50 to 70% |
| O=C(CCc1cnc[nH]1)N1CCN(c2ccc(F)cc2)c2cc(F)ccc21 [Compound 46, 1-(6-fluoro-4-(4-fluorophenyl)-3,4-dihydroquinoxaline-1(2H)-yl)-3-(1H-imidazol-5-yl)propan-1-one] | ≥ 70% |
| O=C(CN1CCCC1)N1CCN(Cc2cccc(Cl)c2)c2ccccc21 [Compound 102, 1-(4-(3-chlorobenzyl)-3,4-dihydroquinoxaline-1(2H)-yl)-2-(pyrrolidin-1-yl)ethan-1-one] | < 50% |
| O=C(CCN1CCCC1)N1CCN(c2cccc(Cl)c2)c2ccccc21 [Compound 134, 1-(4-(3-chlorophenyl)-3,4-dihydroquinoxaline-1(2H)-yl)-3-(pyrrolidin-1-yl)propan-1-one] | ≥ 70% |
| CC(C(=O)N1CCN(c2ccccc2)c2cc(F)ccc21)N1CCCC[C@H]1C (stereo partly drawn) [Compound 8, 1-(6-fluoro-4-phenyl-3,4-dihydroquinoxaline-1(2H)-yl)-2-((R)-2-methylpiperidin-1-yl)propan-1-one] | < 50% |
| CC(C(=O)N1CCN(c2ccccc2)c2cc(F)ccc21)N1CCC[C@H]1C (stereo partly shown) [Compound 13] | < 50% |
| O=C(CCN1CCNCC1)N1CCN(c2ccc(F)cc2)c2ccccc21 [Compound 28, 1-(4-(4-fluorophenyl)-3,4-dihydroquinoxaline-1(2H)-yl)-3-(piperazin-1-yl)propan-1-one] | ≥ 70% |
| CC(C(=O)N1CCN(c2ccccc2)c2ccccc21)N1CCN(C)CC1 (stereo not shown) [Compound 62, 2-(4-methylpiperazin-1-yl)-1-(4-phenyl-3,4-dihydroquinoxaline-1(2H)-yl)propan-1-one] | < 50% |
| CN1CCN(CCC(=O)N2CCN(Cc3ccccc3Cl)c3ccccc32)CC1 [Compound 89, 1-(4-(2-chlorobenzyl)-3,4-dihydroquinoxaline-1(2H)-yl)-3-(4-methylpiperazin-1-yl)propan-1-one] | 50 to 70% |
| CC(C(=O)N1CCN(c2ccccn2)c2ccccc21)N1CCCCC1 (stereo not shown) [Compound 150] | ≥ 70% |
| O=C(CCN1CCOCC1)N1CCN(c2ccccc2)c2cc(F)ccc21 [Compound 2, 1-(6-fluoro-4-phenyl-3,4-dihydroquinoxaline-1(2H)-yl)-3-morpholinopropan-1-one] | < 50% |
